Laboratory results from patent US4916231A, “Alkenyltetrazole derivatives” (Shionogi & Co., Ltd., priority 1988, dated 1990).
Structures can show the parent of a compound that is named as a salt. Where two headings read alike, the source gives them in different places.

Key:
Rats Washed Platelet = assay: in vitro rat washed platelet aggregation test (collagen-induced); format: cell-based, rat (Sprague-Dowley); conditions: 0.05 h, inducer collagen 4 μg/ml, 37° C., 3 minutes after inducer, read-out: 50% Inhibitory Concentration (IC50), Inhibition of Aggregation for Rats Washed Platelet
Description: From the abdominal artery of a male rat (Sprague-Dowley, 8 weeks old) was collected 10 ml of blood with a syringe containing 1.5 ml of ACD (85 mM of sodium citrate, 70 mM of citric acid, 110 mM of glucose) and 20 μg of prostaglandin E1. The blood is placed in a plastic test tube, shaken moderately turning and centrifuged for 10 minutes at 160×g to give platelet rich plasma (PRP). To the prepared PRP was added apyrase (25 μg/ml) and the mixture was layered on 40% bovine serum albumin. The resulting mixture is centrifuged at 1200×g for 25 minutes.
The platelet aggregation reaction was measured by an aggregometer (NKK HEMA TRACER 1 MODEL PAT-6A.6M, Niko bioscience). In a measuring cuvette was placed 245 μl of the washed platelet of which platelet number was adjusted to 5×10^5 /μl and set in the aggregometer. The washed platelet was stirred (1000 rpm) at 37° C. and 3.8 µl of 0.1M of CaCl2 was added thereto. One minute later, 0.5 µl of a solution of a test compound in dimethylsulfoxide was added and 2 minutes later, 1 µl of collagen (Collagen reagent Horm®, HORMON-CHEMIE Munchen GMBH, final concentrate 4 μg/ml) as an inducer for platelet aggregating was added. The platelet aggregation was monitored with an aggregometer in terms of the increase and decrease in transmittancy.

Guinea Pig Platelet = assay: Long Acting Inhibitory effect for Guinea Pig Platelet Aggregation (ex vivo), arachidonic acid-induced; format: in vivo, guinea pig (Slc- Hartley); conditions: for AA (100 μM)-Induced Platelet Aggregation (%): 0.5 mg/kg, mean ± S.E., 5 guinea pigs
Description: A solution of test compound in physiological saline was administered (dosage: 0.5 mg/kg, dosage volume: 2 ml/Kg) to a guinea pig (Slc- Hartley, male, 9 weeks old, weight 520 to 590 g).
Inhibitory effect for platelet aggregation was measured in 1, 3, and 6 hours after administration of the test compounds.
Under sodium pentobarbital anesthesia, blood was collected from the abdominal artery in such the ratio that 3.8% sodium citrate solution/blood was 1 volume/9 volume.
The blood centrifuged for 15 minutes at 180×g at 22° C. to give platelet rich plasma (PRP). The remaining blood was further centrifuged at 3,000 rpm for 10 minutes at 22° C. to give platelet-poor plasma (PPP).
The platelet aggregation test was performed according to Born's method [Born, G.V.R., Nature, 194, 927-929 (1962)], using an aggregometer (model AUTO RAM-61, Rika Denki Kogyo CO., Ltd.). 400 µl of PRP, whose platelets number was prepared to count 50-55×10^4 /μl, was placed in a measuring cuvette and set in the aggregometer. PRP was stirred for 1 minute (at 1,200 rpm) at 37° C. and preliminarily warmed. As an inducer for platelet aggregating, 100 µl of arachidonic acid (sodium salt, Sigma) was added and the platelet aggregation was monitored with an aggregometer in terms of the increase and decrease in light transmission.
Setting the light transmittance for PRP at 0% of platelet aggregating rate, and that for PPP at 100%, the maximum light transmittance for the sample, after the addition of the inducer for platelet aggregating, was regarded as the maximum platelet aggragation rate.
The inhibitory rate for aggregation (%) was calculated from the ratio of the maximum aggregation rate in the test-compound-added group to that in the control group (carrier-added group).

[1] = system: sodium arachidonate-induced pulmonary thromboembolic death in mice; assay: Protective effects on sodium arachidonate-induced pulmonary thromboembolic death in mice; format: in vivo, mice (DDY); conditions: for ED50: Mus musculus, iv, 1 h, into tail vein, mortality at 1 hour, read-out: ED50 (95% confidence limit)
Description: The mice (DDY, 4 weeks old, male, weight 20 to 25 g) in a group of ten are used.
Pulmonary thromboembolic death was induced by injecting 99% solution of sodium arachidonate (Sigma) in physiological saline [100 mg/kg (100% pulmonary thromboembolic death was induced in this amount.)] into tail vein. In order to examine the duration time of the test compound, sodium arachidonate was administrated in 15 minutes and 60 minutes after an administration of a solution of the test compounds in physioligical saline into tail vein. The mortality at 1 hour was determined and ED50 was calculated by probit method.

SMILES | IC50 (Rats Washed Platelet) | further results
O=S(=O)(N[C@@H]1[C@@H](C/C=C\CCCc2nnn[nH]2)[C@H]2CC[C@@H]1O2)c1ccccc1 (relative stereo) [Iba-b, (1R*,2R*,3R*,4S*)-3-phenylsulfonylamino-2-[(2Z)-6-(5-tetrazolyl)hex-2-enyl]-7-oxabicyclo[2.2.1]heptane] | 20 nM | –
COc1ccc(S(=O)(=O)N[C@@H]2[C@@H](C/C=C\CCCc3nnn[nH]3)C[C@H]3C[C@@H]2C3(C)C)cc1 [Iee-b, (1R,2R,3S,5S)-2-[(4-methoxyphenyl)sulfonylamino]-3-[(2Z)-6-(5-tetrazolyl)hex-2-enyl]-6,6-dimethylbicyclo [3.1.1]heptane] | 5 nM | –
O=S(=O)(N[C@H]1[C@H]2CC[C@H](C2)[C@@H]1C/C=C\CCCc1nnn[nH]1)c1ccccc1 [(+)-Iaa-b, (1R,2S,3S,4S)-3-phenylsulfonylamino-2-[(2Z)-6-(5-tetrazolyl)hex-2-enyl]bicyclo[2.2.1]heptane] | 2 nM | –
CC1(C)[C@H]2C[C@H](NS(=O)(=O)c3ccccc3)[C@@H](C/C=C\CCCc3nn[nH]n3)[C@@H]1C2 [Ida-b] | 3 nM | –
CC1(C)[C@H]2C[C@H](C/C=C\CCCc3nnn[nH]3)[C@@H](NS(=O)(=O)c3ccccc3)[C@@H]1C2 [Iea-b, (1R,2R,3S,5S)-2-phenylsulfonylamino-3-[(2Z)-6-(5-tetrazolyl)hex-2-enyl]-6,6-dimethylbicyclo[3.1.1]heptane] | 20 nM | –
O=S(=O)(N[C@H]1[C@H]2CC[C@H](C2)[C@@H]1C/C=C\CCCc1nnn[nH]1)c1ccccc1 (relative stereo) [Iaa-b, (1R*,2S*,3S*,4S*)-3-phenylsulfonylamino-2-[(2Z)-6-(5-tetrazolyl)hex-2-enyl]bicyclo[2.2.1]heptane] | 3 nM | AA (100 μM)-Induced Platelet Aggregation (%) (Guinea Pig Platelet; 0 hours after p.o. administration): 89.7 ± 1.4%; inhibition of arachidonic acid induced platelet aggregation (Guinea Pig Platelet; 1 and 3 hours after administration): significantly inhibited; AA (100 μM)-Induced Platelet Aggregation (%) (Guinea Pig Platelet; 1 hour after p.o. administration, * p < 0.05): 2.5 ± 2.0%; AA (100 μM)-Induced Platelet Aggregation (%) (Guinea Pig Platelet; 3 hours after p.o. administration, * p < 0.05): 19.0 ± 18.0%; inhibition of arachidonic acid induced platelet aggregation (Guinea Pig Platelet; 6 hours after administration): still observed; AA (100 μM)-Induced Platelet Aggregation (%) (Guinea Pig Platelet; 6 hours after p.o. administration): 56.3 ± 20.4%; duration of action (Guinea Pig Platelet; conclusion of ex vivo test): long acting; inhibitory potency, 15 vs 60 minutes pretreatment ([1]; 15 minutes and 60 minutes pretreatment): did not show significantly different inhibitory potency; inhibitory effect of 60 minutes pretreatment ([1]; 60 minutes pretreatment): rather stronger inhibitory effect; ED50 ([1]; pretreatment 15 min): 1.8 mg/kg; ED50 ([1]; pretreatment 60 min): 1.5 mg/kg; duration of action ([1]; conclusion of mouse test): long-acting
CC1(C)[C@H]2C[C@H](C/C=C\CCCc3nnn[nH]3)[C@@H](NS(=O)(=O)c3cccc(Cl)c3)[C@@H]1C2 [Iek-b, (1R,2R,3S,5S)-2-[(3-chlorophenyl)sulfonylamino]-3-[(2Z)-6-(5-tetrazolyl)hex-2-enyl]-6,6-dimethyl-bicyclo [3.1.1]heptane] | 5 nM | –
CC1(C)[C@H]2C[C@H](C/C=C\CCCc3nnn[nH]3)[C@@H](NS(=O)(=O)c3ccc4ccccc4c3)[C@@H]1C2 [Iei-b, (1R,2R,3S,5S)-2-[(2-naphthyl)sulfonylamino]-3-[(2Z)-6-(5-tetrazolyl)hex-2-enyl]-6,6-dimethylbicyclo[3.1.1]-heptane] | 9 nM | –
O=S(=O)(N[C@H]1[C@H]2CC[C@H](C2)[C@@H]1C/C=C\CCCc1nnn[nH]1)c1ccc(O)cc1 (relative stereo) [Iad-b, (1R*,2S*,3S*,4S*)-3-(4-hydroxyphenylsulfonylamino)-2-[(2Z)-6-(5-tetrazolyl)hex-2-enyl]bicyclo[2.2.1]heptane] | 2 nM | –
Cc1ccc(S(=O)(=O)N[C@@H]2[C@@H](C/C=C\CCCc3nnn[nH]3)C[C@H]3C[C@@H]2C3(C)C)cc1 [Ieb-b, (1R,2R,3S,5S)-2-(p-tolylsulfonylamino)-3-[(2Z)-6-(5-tetrazolyl)hex-2-enyl]-6,6-dimethylbicyclo[3.1.1]-heptane] | 4 nM | –
CC1(C)[C@H]2C[C@H](C/C=C\CCCc3nnn[nH]3)[C@@H](NS(=O)(=O)c3ccc(-c4ccccc4)cc3)[C@@H]1C2 [Ieh-b, (1R,2R,3S,5S)-2-[(4-biphenylyl)sulfonylamino]-3-[(2Z)-6-(5-tetrazolyl)hex-2-enyl]-6,6-dimethylbicyclo[3.1.1]heptane] | 10 nM | –

Further compounds by falling IC50 (Rats Washed Platelet), results first:

IC50 (Rats Washed Platelet) | SMILES | further results
20 nM | CC1(C)[C@H]2C[C@H](C/C=C\CCCc3nnn[nH]3)[C@@H](NS(=O)(=O)c3ccccc3Cl)[C@@H]1C2 [Iel-b, (1R,2R,3S,5S)-2-[(2-chlorophenyl)sulfonylamino]-3-[(2Z)-6-(5-tetrazolyl)hex-2-enyl]-6,6-dimethylbicyclo [3.1.1]heptane] | –
10 nM | O=S(=O)(N[C@H]1[C@H](C/C=C\CCCc2nnn[nH]2)[C@H]2CC[C@@H]1O2)c1ccccc1 (relative stereo) [Ica-b, (1R*,2S*,3S*,4S*)-3-phenylsulfonylamino-2-[(2Z)-6-(5-tetrazolyl)hex-2-enyl]-7-oxabicyclo[2.2.1]heptane] | –
7 nM | CC1(C)[C@H]2C[C@H](C/C=C\CCCc3nnn[nH]3)[C@@H](NS(=O)(=O)c3ccc(Cl)cc3)[C@@H]1C2 [Iej-b, (1R,2R,3S,5S)-2-[(4-chlorophenyl)sulfonylamino]-3-[(2Z)-6-(5-tetrazolyl)hex-2-enyl]-6,6-dimethylbicyclo [3.1.1]heptane] | –
2 nM | COc1ccc(S(=O)(=O)N[C@H]2[C@H]3CC[C@H](C3)[C@@H]2C/C=C\CCCc2nnn[nH]2)cc1 (relative stereo) [Iae-b, (1R*,2S*,3S*,4S*)-3-(4-methoxyphenylsulfonylamino)-2-[(2Z)-6-(5-tetrazolyl)hex-2-enyl]bicyclo[2.2.1]heptane] | –
2 nM | Cc1ccc(S(=O)(=O)N[C@H]2[C@H]3CC[C@H](C3)[C@@H]2C/C=C\CCCc2nn[nH]n2)cc1 (relative stereo) [Iab-b, Sodium salt of (1R*,2S*,3S*,4S*)-2-[(2Z)-6-(5-tetrazolyl)hex-2-enyl]-3-(4-tolylsulfonylamino)bicyclo[2.2.1]-hepatane] | –
2 nM | CC1(C)[C@H]2C[C@H](C/C=C\CCCc3nnn[nH]3)[C@@H](NS(=O)(=O)c3ccc(Br)cc3)[C@@H]1C2 [Iec-b, (1R,2R,3S,5S)-2-[(4-bromophenyl)sulfonylamino]-3-[(2Z)-6-(5-tetrazolyl)hex-2-enyl]-6,6-dimethylbicyclo[3.1.1]heptane] | –
2 nM | O=S(=O)(N[C@H]1[C@H]2CC[C@H](C2)[C@@H]1C/C=C\CCCc1nn[nH]n1)c1ccc(Br)cc1 (relative stereo) [Iac-b, (1R*,2S*,3S*,4S*)-3-(4-bromophenylsulfonylamino-2-[(2Z)-6-(5-tetrazolyl)hex-2-enyl]bicyclo[2.2.1]heptane] | –
